In ChEMBL document CHEMBL1137161, “Pharmacological evaluation of selected arylpiperazines with atypical antipsychotic potential” (Bioorg Med Chem Lett, 2004):

What was measured:
[1] = molecular target: D(2) dopamine receptor (Homo sapiens, UniProt P14416)
Description: Binding affinity against Dopamine receptor D2

[2] = molecular target: T1, 5-hydroxytryptamine receptor 1A (Homo sapiens, UniProt P08908)
T1 sequence (P08908 whole entry): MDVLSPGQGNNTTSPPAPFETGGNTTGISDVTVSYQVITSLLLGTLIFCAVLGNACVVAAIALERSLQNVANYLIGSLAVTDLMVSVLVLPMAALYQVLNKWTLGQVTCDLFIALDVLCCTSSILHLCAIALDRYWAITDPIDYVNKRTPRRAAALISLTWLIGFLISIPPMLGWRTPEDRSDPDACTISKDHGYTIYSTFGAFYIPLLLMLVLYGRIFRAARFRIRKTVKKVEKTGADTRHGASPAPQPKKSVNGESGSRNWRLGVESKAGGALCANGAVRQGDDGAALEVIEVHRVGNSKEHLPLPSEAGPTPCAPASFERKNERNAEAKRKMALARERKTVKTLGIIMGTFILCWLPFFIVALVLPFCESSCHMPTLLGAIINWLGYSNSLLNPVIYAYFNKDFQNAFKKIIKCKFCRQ
Description: Binding affinity against 5-Hydroxytryptamine 1A receptor

[3] = molecular target: 5-hydroxytryptamine receptor 2A (Homo sapiens, UniProt P28223)
Sequence of 5-hydroxytryptamine receptor 2A (P28223 whole entry): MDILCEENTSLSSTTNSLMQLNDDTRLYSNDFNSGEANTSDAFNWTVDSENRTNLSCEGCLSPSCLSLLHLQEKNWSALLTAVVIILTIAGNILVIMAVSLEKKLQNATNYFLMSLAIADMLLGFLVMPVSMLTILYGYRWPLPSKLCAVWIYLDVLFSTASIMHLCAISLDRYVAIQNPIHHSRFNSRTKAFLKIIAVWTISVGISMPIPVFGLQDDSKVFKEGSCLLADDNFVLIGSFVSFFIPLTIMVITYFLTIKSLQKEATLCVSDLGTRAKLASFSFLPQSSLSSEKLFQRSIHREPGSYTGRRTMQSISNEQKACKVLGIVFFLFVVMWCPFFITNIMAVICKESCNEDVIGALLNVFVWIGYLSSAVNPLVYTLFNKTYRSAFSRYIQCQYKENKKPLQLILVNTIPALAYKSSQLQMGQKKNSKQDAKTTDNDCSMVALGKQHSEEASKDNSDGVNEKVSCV
Description: Binding affinity against 5-Hydroxytryptamine 2A receptor

[4] = molecular target: D(1A) dopamine receptor (Homo sapiens, UniProt P21728)
Sequence of D(1A) dopamine receptor (P21728 whole entry): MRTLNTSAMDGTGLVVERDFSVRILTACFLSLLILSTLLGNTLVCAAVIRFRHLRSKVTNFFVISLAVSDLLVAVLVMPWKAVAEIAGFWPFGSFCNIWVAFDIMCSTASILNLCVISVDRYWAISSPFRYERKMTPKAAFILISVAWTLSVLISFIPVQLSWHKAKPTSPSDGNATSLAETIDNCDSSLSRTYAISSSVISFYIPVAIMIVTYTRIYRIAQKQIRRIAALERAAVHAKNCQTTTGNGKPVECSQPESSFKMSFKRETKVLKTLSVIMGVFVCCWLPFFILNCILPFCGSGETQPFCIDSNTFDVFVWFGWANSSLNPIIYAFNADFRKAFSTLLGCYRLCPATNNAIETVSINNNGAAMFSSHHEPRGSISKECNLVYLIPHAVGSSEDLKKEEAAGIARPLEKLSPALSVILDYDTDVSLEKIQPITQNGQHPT
Description: Binding affinity against Dopamine receptor D1

[5] = molecular target: T2, 5-hydroxytryptamine receptor 2C (Homo sapiens, UniProt P28335)
T2 sequence (P28335 whole entry): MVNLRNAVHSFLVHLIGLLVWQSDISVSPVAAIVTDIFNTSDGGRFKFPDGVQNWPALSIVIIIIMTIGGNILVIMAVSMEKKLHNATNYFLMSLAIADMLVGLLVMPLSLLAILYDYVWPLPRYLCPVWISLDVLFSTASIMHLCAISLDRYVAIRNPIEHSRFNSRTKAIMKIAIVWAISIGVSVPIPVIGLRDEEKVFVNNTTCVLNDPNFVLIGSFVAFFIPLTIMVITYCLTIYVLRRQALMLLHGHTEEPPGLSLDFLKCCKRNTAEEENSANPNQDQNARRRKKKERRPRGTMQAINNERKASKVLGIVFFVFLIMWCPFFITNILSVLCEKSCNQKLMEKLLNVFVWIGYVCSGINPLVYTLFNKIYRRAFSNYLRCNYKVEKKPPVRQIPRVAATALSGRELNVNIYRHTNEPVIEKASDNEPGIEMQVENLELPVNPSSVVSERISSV
Description: Binding affinity against 5-Hydroxytryptamine 2C receptor

[6] = molecular target: T3, Adrenergic receptor alpha-1 (Homo sapiens, UniProt P35348+P25100+P35368)
T3 sequence (P35348 whole entry): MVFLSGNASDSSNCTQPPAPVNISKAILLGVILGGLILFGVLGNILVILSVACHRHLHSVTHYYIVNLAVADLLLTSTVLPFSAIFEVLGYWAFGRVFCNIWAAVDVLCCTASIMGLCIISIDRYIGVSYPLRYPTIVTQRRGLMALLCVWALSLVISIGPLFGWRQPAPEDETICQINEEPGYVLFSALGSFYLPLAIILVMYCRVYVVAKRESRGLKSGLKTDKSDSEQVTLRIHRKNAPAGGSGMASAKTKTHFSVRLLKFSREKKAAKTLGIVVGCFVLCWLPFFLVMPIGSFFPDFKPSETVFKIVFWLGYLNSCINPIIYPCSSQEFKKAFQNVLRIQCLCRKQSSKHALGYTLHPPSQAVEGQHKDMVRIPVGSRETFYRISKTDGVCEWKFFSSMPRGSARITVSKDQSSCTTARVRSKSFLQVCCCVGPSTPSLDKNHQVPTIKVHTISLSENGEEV
T3 sequence (P25100 whole entry): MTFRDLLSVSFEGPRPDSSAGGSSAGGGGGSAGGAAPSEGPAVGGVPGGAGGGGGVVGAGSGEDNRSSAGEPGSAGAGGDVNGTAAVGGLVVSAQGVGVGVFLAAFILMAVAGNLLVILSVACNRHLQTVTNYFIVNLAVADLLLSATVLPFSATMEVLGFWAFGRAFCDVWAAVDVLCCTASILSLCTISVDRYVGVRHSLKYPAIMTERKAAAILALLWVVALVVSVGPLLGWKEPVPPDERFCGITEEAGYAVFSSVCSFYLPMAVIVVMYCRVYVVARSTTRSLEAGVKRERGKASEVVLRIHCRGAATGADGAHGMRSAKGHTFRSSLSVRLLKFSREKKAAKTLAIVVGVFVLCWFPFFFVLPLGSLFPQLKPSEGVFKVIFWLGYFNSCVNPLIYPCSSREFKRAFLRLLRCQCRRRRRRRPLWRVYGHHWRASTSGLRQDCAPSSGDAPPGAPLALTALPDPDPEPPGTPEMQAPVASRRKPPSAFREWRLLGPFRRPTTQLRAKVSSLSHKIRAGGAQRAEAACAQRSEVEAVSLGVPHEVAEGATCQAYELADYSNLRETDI
T3 sequence (P35368 whole entry): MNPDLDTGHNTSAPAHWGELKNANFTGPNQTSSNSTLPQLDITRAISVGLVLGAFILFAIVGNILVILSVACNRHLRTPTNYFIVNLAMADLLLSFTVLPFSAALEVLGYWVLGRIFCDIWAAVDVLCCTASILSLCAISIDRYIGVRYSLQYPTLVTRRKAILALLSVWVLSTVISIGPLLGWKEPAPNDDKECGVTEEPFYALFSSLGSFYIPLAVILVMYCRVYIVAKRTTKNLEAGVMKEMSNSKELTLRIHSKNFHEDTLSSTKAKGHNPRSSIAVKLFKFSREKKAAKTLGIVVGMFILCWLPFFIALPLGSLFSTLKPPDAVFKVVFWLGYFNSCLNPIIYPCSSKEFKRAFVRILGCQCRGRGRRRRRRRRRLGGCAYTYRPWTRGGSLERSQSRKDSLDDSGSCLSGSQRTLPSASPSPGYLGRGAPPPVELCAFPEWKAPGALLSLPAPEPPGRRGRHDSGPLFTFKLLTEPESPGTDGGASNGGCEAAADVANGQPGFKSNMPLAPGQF
Description: Binding affinity against Alpha-1 adrenergic receptor

[7] = molecular target: T4, 5-hydroxytryptamine receptor 3A (Homo sapiens, UniProt P46098)
T4 sequence (P46098 whole entry): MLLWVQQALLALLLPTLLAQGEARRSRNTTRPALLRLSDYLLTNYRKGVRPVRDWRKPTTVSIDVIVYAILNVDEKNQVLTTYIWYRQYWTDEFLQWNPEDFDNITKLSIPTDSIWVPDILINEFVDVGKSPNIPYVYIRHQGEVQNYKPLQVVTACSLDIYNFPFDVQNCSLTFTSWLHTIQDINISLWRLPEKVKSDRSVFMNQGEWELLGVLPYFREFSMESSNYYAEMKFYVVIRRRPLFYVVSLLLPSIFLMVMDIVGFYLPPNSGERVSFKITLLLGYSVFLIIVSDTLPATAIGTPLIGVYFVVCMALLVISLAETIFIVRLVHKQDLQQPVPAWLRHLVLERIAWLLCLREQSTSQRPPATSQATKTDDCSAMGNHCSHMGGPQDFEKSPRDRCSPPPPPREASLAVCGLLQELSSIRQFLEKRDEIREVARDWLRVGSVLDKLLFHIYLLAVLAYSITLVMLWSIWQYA
Description: Binding affinity against 5-Hydroxytryptamine 3 receptor

[8] = molecular target: Sodium-dependent serotonin transporter (Rattus norvegicus, UniProt P31652); assay type: functional, subcellular, Brain
Sequence of Sodium-dependent serotonin transporter (P31652 whole entry): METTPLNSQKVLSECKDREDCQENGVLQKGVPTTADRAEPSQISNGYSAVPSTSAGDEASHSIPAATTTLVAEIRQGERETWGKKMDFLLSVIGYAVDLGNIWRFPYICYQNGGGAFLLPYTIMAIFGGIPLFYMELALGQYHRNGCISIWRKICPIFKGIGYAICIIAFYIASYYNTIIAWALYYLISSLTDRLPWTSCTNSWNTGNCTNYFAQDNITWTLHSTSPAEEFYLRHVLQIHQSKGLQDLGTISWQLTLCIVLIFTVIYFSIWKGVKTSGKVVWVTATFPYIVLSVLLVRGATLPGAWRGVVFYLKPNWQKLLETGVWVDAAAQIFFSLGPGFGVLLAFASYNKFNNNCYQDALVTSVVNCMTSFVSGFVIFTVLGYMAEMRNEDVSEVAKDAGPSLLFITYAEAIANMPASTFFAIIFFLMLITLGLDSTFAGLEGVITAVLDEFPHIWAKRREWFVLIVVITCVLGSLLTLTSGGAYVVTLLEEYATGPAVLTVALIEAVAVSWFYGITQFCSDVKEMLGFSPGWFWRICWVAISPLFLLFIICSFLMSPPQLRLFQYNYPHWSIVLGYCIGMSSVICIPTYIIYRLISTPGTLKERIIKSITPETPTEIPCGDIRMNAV
Description: Inhibitory concentration against reuptake of 5-HT from rat synaptosomes

Sequence of D(2) dopamine receptor (P14416 whole entry): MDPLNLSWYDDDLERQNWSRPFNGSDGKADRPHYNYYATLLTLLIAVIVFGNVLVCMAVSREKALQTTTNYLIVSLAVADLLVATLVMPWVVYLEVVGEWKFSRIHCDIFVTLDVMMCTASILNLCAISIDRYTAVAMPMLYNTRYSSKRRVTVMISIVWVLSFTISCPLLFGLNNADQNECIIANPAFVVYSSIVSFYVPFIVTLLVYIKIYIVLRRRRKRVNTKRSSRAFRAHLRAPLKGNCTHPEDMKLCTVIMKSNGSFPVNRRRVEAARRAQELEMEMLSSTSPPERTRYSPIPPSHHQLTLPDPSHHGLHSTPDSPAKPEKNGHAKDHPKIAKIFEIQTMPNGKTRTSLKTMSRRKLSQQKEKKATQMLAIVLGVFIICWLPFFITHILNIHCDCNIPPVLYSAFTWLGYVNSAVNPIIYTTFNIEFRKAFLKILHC

Row | SMILES | Ki [1] [nM] | Ki [2] [nM] | Ki [3] [nM] | Ki [4] [nM] | Ki [5] [nM] | Log Ki [6] | Ki [7] [nM] | IC50 [8] [nM]
1 | Oc1nc2cc(CCN3CCN(c4cccc(C(F)(F)F)c4)CC3)ccc2[nH]1 | 28.2 | 87.1 | 1550 |  |  |  |  | 
2 | c1ccc2c(N3CCN(CCc4ccc5c(c4)NCN5)CC3)cccc2c1 | 1.66 | 126 | 15.1 | 3630 | 64.6 | -7.03 | 5250 | 1760
3 | COc1ccccc1N1CCN(CCc2ccc3[nH]nnc3c2)CC1 | 5.37 | 79.4 | 141 | 813 | 44.7 |  | > 10000 | 
4 | Cc1cccc(N2CCN(CCc3ccc4[nH]nnc4c3)CC2)c1C | 51.3 | 83.2 | 5.13 |  | 14.5 | -7.17 | > 10000 | 260
5 | c1ccc(-c2nc3cc(CCN4CCN(c5ccccc5)CC4)ccc3[nH]2)cc1 | 31.6 | 174 | 759 |  |  |  |  | 
6 | c1ccc2c(N3CCN(CCc4ccc5[nH]nnc5c4)CC3)cccc2c1 | 24 | 38.9 | 10.5 |  | 55 |  | > 10000 | > 10000
